What was measured:
[1] = system: CHO inducible cells expressing wild‐type M α1‐antitrypsin; assay: Tunicamycin sensitivity, cell viability (Cell Counting Kit‐8), cells expressing M α1‐antitrypsin; assay type: cell-based; details: 10 μM GSK716, cells expressing M α1‐antitrypsin, tunicamycin 36 h
Experimental: Figure 2 GSK716 inhibits polymerisation of Z α1‐antitrypsin in cell models of disease • A GSK716 was added to CHO‐TET‐ON‐Z‐A1AT cells (Ordóñez et al, 2013) with simultaneous induction of Z α1‐antitrypsin expression using doxycycline, and polymer load was quantified with the 2C1 monoclonal antibody that is specific to pathological polymers of α1‐antitrypsin (Miranda et al, 2010). […] Data were normalised to vehicle and a control compound from the GSK716 series at saturating concentration. […] It induced an approximately threefold increase in secreted levels of Z α1‐antitrypsin compared with vehicle control. This was apparent even after polymers had been allowed to form. Scale bar: 100 µm. Data presented as mean ± SD, n = 8 (secretion) and n = 6 (polymer inhibition). • E CHO tetracycline‐inducible cells expressing Z α1‐antitrypsin were induced with 0.5 μg/ml doxycycline for 48 h and treated with 10 μM GSK716. […] For every time point, NP‐40‐soluble and NP‐40‐insoluble fractions were separated and immunoprecipitated with the 2C1 mAb and resolved by 4–12% w/v SDS–PAGE and α1‐antitrypsin detected by immunoblotting. […] Cell viability was measured by Cell Counting Kit‐8. […] Samples were resolved by 4–12% w/v acrylamide SDS–PAGE and detected by autoradiography. • H The graphs show the effect of GSK716 on intracellular and extracellular Z α1‐antitrypsin (mean ± SEM, n = 2). […]

[2] = system: serum albumin; assay: Circulating serum albumin in Z α1‐antitrypsin transgenic mice; assay type: in vivo, mouse; details: after 5 days of dosing
Experimental: A significant fraction of the total Z α1‐antitrypsin in the circulation is in the polymeric conformation (Tan et al, 2014). There are no antibodies that are specific for monomeric Z α1‐antitrypsin and so to directly determine its concentration, a deconvolution method was developed based on immunoassays with antibodies for either total or polymeric α1‐antitrypsin, and calibration curves with purified monomeric and polymeric Z α1‐antitrypsin. Monomeric Z α1‐antitrypsin was measured in plasma samples following 6 days of dosing, and levels were normalised to each animals’ pre‐dose control levels to account for the natural variation of Z α1‐antitrypsin between animals. […] Total drug levels and changes in Z α1‐antitrypsin following 3 days of dosing were indistinguishable from those following 6 days of dosing. There was no effect on circulating serum albumin after 5 days of dosing which provides evidence that GSK716 is specific for Z α1‐antitrypsin. Moreover, the effects are not mediated by metabolites of GSK716 as the major metabolites have much reduced or no binding to α1‐antitrypsin.

[3] = target: T1, α1‐antitrypsin (Homo sapiens, UniProt P01009, E366K); assay: Intrahepatic α1‐antitrypsin by ELISA in Z α1‐antitrypsin transgenic mice; assay type: in vivo, mouse
T1 construct: random insertion of the human Z α1‐antitrypsin gene; from tissue; host or cells: hemizygous Z α1-antitrypsin transgenic mice (liver, plasma)
Experimental: Since GSK716 blocks polymer formation in cells, we explored the effect of dosing GSK716 on liver polymer levels. […] GSK716 was dosed at 100 mg/kg three times a day for 20 days. […] Liver polymer levels were investigated by staining with 2C1 anti‐polymer monoclonal antibody and were scored blind by a pathologist or by quantification using an algorithm to measure all areas of positive staining (Fig EV1). There was no difference observed in total liver polymer load when assessed by manual or quantitative scoring (Fig 6B and C). There was no significant fibrosis in any of the liver sections. Intrahepatic α1‐antitrypsin was also assessed by ELISA. The vast majority (95–100%) of α1‐antitrypsin within the liver was polymer with the monomer typically being below the level of detection. Treatment with GSK716 increased the monomer measured in liver homogenate by approx. fourfold in keeping with the changes seen in blood.

T1 sequence (P01009 25-418 E366K): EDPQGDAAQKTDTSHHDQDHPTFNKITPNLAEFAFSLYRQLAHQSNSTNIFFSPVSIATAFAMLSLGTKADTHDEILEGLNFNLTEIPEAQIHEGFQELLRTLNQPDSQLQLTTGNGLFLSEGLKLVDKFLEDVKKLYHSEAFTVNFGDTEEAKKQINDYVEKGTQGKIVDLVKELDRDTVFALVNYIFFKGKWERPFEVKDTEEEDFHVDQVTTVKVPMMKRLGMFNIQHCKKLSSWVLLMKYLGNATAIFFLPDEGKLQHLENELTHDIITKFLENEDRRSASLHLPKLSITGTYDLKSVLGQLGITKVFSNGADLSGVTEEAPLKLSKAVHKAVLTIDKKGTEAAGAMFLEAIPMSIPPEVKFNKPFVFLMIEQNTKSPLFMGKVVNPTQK

## CCC[C@@H](NC(=O)c1cccc2c1CC(=O)N2)[C@@H](O)c1cccc(F)c1C [GSK716]
[1]
  survival with tunicamycin (cell viability): no effect
[2]
  effect on circulating serum albumin: no effect
[3]
  increase of monomer measured in liver homogenate: approx. fourfold

From publication PMC7933930, “Development of a small molecule that corrects misfolding and increases secretion of Z α1‐antitrypsin” (EMBO Molecular Medicine, 2021)
